According to US20210196793A1, “Pharmaceutical Combination Comprising Epidermal Growth Factor and Secretagogue Peptide GHRP6 for the Restoration of Brain Damage” (CENTRO DE INGENIERÍA GENÉTICA Y BIOTECNOLOGÍA, priority 2018, published 2021):

System: patients with Amyotrophic Lateral Sclerosis
Assay: Patients with Amyotrophic Lateral Sclerosis, ALSFRS-R functional scale
Format: in vivo, human
Settings: for ALSFRS-R before treatment: baseline
Method: Forty patients with definite diagnosis of Amyotrophic Lateral Sclerosis were treated with EGF 0.6 μg/kg of body weight, and GHRP6 60 μg/kg of body weight, intravenously, every other day, during 6 months, together with Rilutek® (Riluzole). Previously, these patients were stratified according to the origin of the disease, spinal (n=25) or bulbar (n=15). Another group of 30 patients with definite diagnosis of Amyotrophic Lateral Sclerosis, also stratified according to origin, spinal (n=21) or bulbar (n=9), were treated only with Rilutek®.
Before the beginning and after the end of the trial, all patients were evaluated using the functional scale for Amyotrophic Lateral Sclerosis (ALSFRS-R). The ALSFRS-R scale is usually used for the neurological and functional evaluation of patients with said disease. This scale includes various functional items, such as those related to language, salivation, swallowing, the ability to write, handling eating utensils, dressing and sanitizing, turning in bed, climbing stairs, and breathing.

Nc1nc2ccc(OC(F)(F)F)cc2s1 [Rilutek ®, Riluzole]
clinical improvement (salivation, swallowing, breathing, dysarthria) (after 6 months of treatment, spinal and bulbar onset): None of the latter was observed | ALSFRS-R after the treatment (bulbar origin, after 6 months of treatment): 33.1 ± 8.32 | ALSFRS-R before treatment (bulbar origin): 35.1 ± 6.2 | ALSFRS-R after the treatment (spinal origin, after 6 months of treatment): 38.2 ± 3.34 | ALSFRS-R before treatment (spinal origin): 38.7 ± 4.4
